Experimental findings from patent US20240102060A1, “ENZYMES AND METHODS FOR FERMENTATIVE PRODUCTION OF MONOTERPENE ESTERS” (ISOBIONICS B.V., priority 2020, published 2024) are described below.

The labels stand for the following.
B1: AAT9-2-a: inactive variant of the alcohol acyl transferase from Citrus bergamia, SEQ ID NO: 8 (protein, listed as Citrus bergamia)
chain: MKISVETISREMIKPSTPTPNHLRHYHFSYLDQTAPPLYMSLLYFYHLDDHKLVSNNNHLFINSLKSSLSNVLTKYYPLAGRVKNNYVDCNDEGVVFSEAKVSCLLSEIINELPSEFNKLHPFDQEKDVVSINGLPIAIQVNMFNCGSVAIAVMIFHKIADAASLITFTKNWAAAARGGSGNVFPEFVAARLFPPQDAGGSSGVSVDPRPKKIVLKKFLFEGPKITALRDKYGLDNGIYPTRVEALSAFIWSRLAASTRIKISPERPYMLVHLVNLRKRMEPPLPDDSFGNIIGAAVTVLEENDDDDRMVNKFRDAICKVDKDYLKVMKLEHSELTDLVITNGEIVDRGELGYCFFSSLCKFPVYEADFGLGKPMWVAWGRLPYKNIIHLIDTKSGDGIEAWIHLEEEVMAKFGNDQELLAYVSP
B2: AAT9-1-c: alcohol acyl transferase (AAT) from Citrus bergamia, variant AAT9-1-c, amino acid sequence SEQ ID NO: 2 (protein, listed as Citrus bergamia)
chain: MKIDVETISREMIKPSTPTPNHLRHYQFSHLDQIGPPFYISLLYFYHLDDDKLVSNNRHLFSDSLKSSLSNVLTKYYPLAGRIKNNYVDCNDEGVFFSEAKVSCQLSEIINEPEFPSEFKKLLPFDQEKDVVSFDSLAIAIQVNMFNCGNVAVAVMISHKIADGSSLSTFTKNWAAAARGESENVFPEFVAARLFPPEDAGGGSGTSFDPRPKKVVLKKFLFEGSKITALRDKYGFDNRIYPTRVEALSAFLWSRLAASNRIKVSSERPCMLIHAVNLRKRVEPQLPADSFGNLFAFAVTVLDENDDDGMVNKFRDAISKIDKDYLKAKKVEHSELIDLGITNGEKFGGGELGYCIISSLCKFPVYEADFGLGKPTWVAWGCFPYKNVIHFIDAKSGDGIEVWVHLEKEVMAKFENDQELLAYVST
B3: AAT9-1-a: inactive variant of the alcohol acyl transferase from Citrus bergamia, Tryptophan at position 371, SEQ ID NO: 6 (protein, listed as Citrus bergamia)
chain: MKIDVETISREMIKPSTPTPNHLRHYQFSHLDQIGPPFYISLLYFYHLDDDKLVSNNRHLFSDSLKSSLSNVLTKYYPLAGRIKNNYVDCNDEGVFFSEAKVSCQLSEIINEPEFPSEFKKLLPFDQEKDVVSFDSLAIAIQVNMFNCGNVAVAVMISHKIADGSSLSTFTKNWAAAARGESENVFPEFVAARLFPPEDAGGGSGTSFDPRPKKVVLKKFLFEGSKITALRDKYGFDNRIYPTRVEALSAFLWSRLAASNRIKVSSERPCMLIHAVNLRKRVEPQLPADSFGNLFAFAVTVLDENDDDGMVNKFRDAISKIDKDYLKAKKVEHSELIDLGITNGEKFGGGELGYCIISSLCKFPVYEADFWLGKPTWVAWGCFPYKNVIHFIDAKSGDGIEVWVHLEKEVMAKFENDQELLAYVST
B4: SEQ ID NO: 3: alcohol acyl transferase (AAT) from Lavandula angustifolia, internal designation 10056 (protein, listed as Lavandula angustifolia)
chain: MEIETRVISTEIIKPSSPTPKFLQNHRLSFLDQIAPPIFMPVVYFYESNTKFPNSQQSNHLKNSLSQVLTKFYPLAGRLVGNLYVDCDDGGVPFVEAEANFDLSQIITNPNPRNMSKFLPYNESHDFCMAVQATYFRCGGVAVGLLVSHKIADALSFFLFANFWSAVARSGEGGGGQPPKFDVATYFPPRDISGYEPSTGIMKEEITTRIFTFSDKKIAVLREKYAATGSGGDGDLPQRRPTRVEALSAFIWTRFINSTGVKSDPNKIYTVMHAVNLRTRTDPPLTEYHFGNISRLAIANPDVGESGVTDGGVELMQRVREAIKAVDGAYVADLKEGEKHLSLMREKMAQANKGELVSFSFTSLCRFPLYDADFGWGKPVWVGSAGFAYKNLVTFMDTRDGDGIEAWIHSRREDMEKFEVDLELQDFLSHDKSSLISLV
B5: SEQ ID NO: 4: alcohol acyl transferase (AAT) from Lavandula angustifolia, internal designation 1461 (protein, listed as Lavandula angustifolia)
chain: MEIEILSKQSIKPSSLTPSQLRDFKLSFIDERIPPFYIPLILYYTFDEQTNVNQSEMSDRLKTSLADALAKFYPLAGRMKGQISVDCNDQGVLCTEAIANANVLDIVSSPDPLVLDKLIPYVTNGFVSSAQEQLAIQITSFNCGGISIGICFSHRIADASTLSSFIKYWAATACRDRISAVSPVFNSATLFPPRNTPDFTPNPTSPSVRPLAPNLVIKRFLFSSQSINAMKLEVSRNSRILNPTRVEVVTALIWNRCVVAKGIERSNRSVAYHTLNLRGKIPALSERSFGNLFQMIKVESEAETTWILLVEKLRSAFEGFDVKKQLLGEKGFENAKENFMEISQLLRAGNVEVFRFSSYCRLAVYEADFGWGKPVWVSNSCYRNKNCVFLFDSVGSRGGIEAWIVMSERDMERLEQDLEFKRFASF

Test system in the first data set: not listed separately
Kind of data set: Conversion of linalool to linalyl acetate by E. coli BL21-RIL expressing Citrus bergamia AAT variants, GC FID. It counts as cell-based. To be noted: dodecane with 5 mM linalool (racemic), overnight at 18° C. The protocol: To this end, the three different variants, and an empty pACYC-DUET-1, were introduced into chemical competent E. coli BL21-RIL (Stratagene), by heat shock transformation, and selected on LB-agar with 1% glucose and […] chloramphenicol. Transformants were transferred to 5 ml LB liquid medium with 1% glucose and 50 ug/ml chloramphenicol and grown overnight at 37° C. and 250 rpm.
(§1) 200 μL of those cultures was transferred to 20 mL of LB medium with the appropriate antibiotic in a 100 mL Erlenmeyer flask, and incubated at 37° C., 250 rpm until the A600 was 0.4 to 0.6. […] The next day, dodecane layer was recovered by centrifugation (10 min at 8000×g), diluted in ethyl acetate and analysed by GC FID.
For the molecule B1, the “conversion of linalool to linalyl acetate” value is “could not be observed”.
The same measure, in the same setting: then B2, with “linalool was converted to linalyl acetate”; and B3, with “could not be observed”.

In the next data set the test system is AAT9-1-c (SEQ ID NO: 2). Put plainly: Monoterpene and sesquiterpene alcohols tested in the presence of E. coli cells expressing AAT9-1-c. Conditions: E. coli cells expressing AAT9-1-c versus empty pACYCDUET-1. The data set is classed as cell-based. The method, then: as §1
As to `CC(C)=CCC[C@](C)(O)[C@@H]1CC=C(C)CC1` [(−)-alpha-bisabolol], the “conversion of the alcohol to its corresponding ester by AAT9-1-c” value (shortened to “conversion of the alcohol”) is on record as “not observed to be converted”.
On to `CC1=CC[C@@H](C(C)(C)O)CC1` [alpha terpineol], for which the “conversion of the alcohol” value is recorded as “corresponding esters could be observed”.
`C[C@@H]1CC[C@H]2C(C)(C)[C@H]3C[C@@]12CC[C@@]3(C)O` [cedrol]: the “conversion of the alcohol” value is listed as “not observed to be converted”.
On the same count and under the same terms, then `CC(C)=CCC/C(C)=C/CO` [geraniol], with “corresponding esters could be observed”.
With `C=CC(C)(O)CCC=C(C)CCC=C(C)C` (stereo not drawn) [nerolidol], the “conversion of the alcohol” value is “not observed to be converted”.
For `C[C@H]1CC[C@@]2(O)C(C)(C)[C@@H]3CC[C@@]2(C)[C@H]1C3` [patchoulol], the “conversion of the alcohol” value is listed as “not observed to be converted”.
As for `CC1=CC(O)C2CC1C2(C)C` (stereo not drawn) [verbenol], the “conversion of the alcohol” value is “corresponding esters could be observed”.

Test system in a further data set: not listed separately
Put plainly: Initial test of Lavandula angustifolia alcohol acyl transferases on linalool.
Settings: not given
As for B4, the “linalool as a substrate” value is “may not prefer linalool as a substrate”.
Same read-out and setting: then B5, with “may not prefer linalool as a substrate”.
